pIC50: −log10 of the molar value. Positions of bridges follow the written chain, without caps; N, C: chain ends. Non-standard residues stand in square brackets, D forms with d. Residues, ends and D or L forms follow the SMILES beside them. *: point of attachment. hPhe(3-Cl-4-CF3) = N[C@@H](CCc1ccc(C(F)(F)F)c(Cl)c1)C(=O)O; NMeDab(N,N-(CH2CF2CH2)) = CN[C@@H](CCN1CC(F)(F)C1)C(=O)O; hPhe(4-CF3) = N[C@@H](CCc1ccc(C(F)(F)F)cc1)C(=O)O; Pro(cis-4-Ph) = O=C(O)[C@@H]1C[C@H](c2ccccc2)CN1; NMePhe(4-Cl) = CN[C@@H](Cc1ccc(Cl)cc1)C(=O)O; NMePhe(3-Me) = CN[C@@H](Cc1cccc(C)c1)C(=O)O; NMePhe(4-Me) = CN[C@@H](Cc1ccc(C)cc1)C(=O)O; NMeMet(O2) = CN[C@@H](CCS(C)(=O)=O)C(=O)O; Abu(4,4,4-F3) = N[C@@H](CC(F)(F)F)C(=O)O; hNle(7,7-F2) = N[C@@H](CCCCC(F)F)C(=O)O; NMeGly(cPent) = CN[C@H](C(=O)O)C1CCCC1; Phe(2-OMe) = COc1ccccc1C[C@H](N)C(=O)O; Phe(3-I) = N[C@@H](Cc1cccc(I)c1)C(=O)O; Pip(4-oxo) = O=C1CCN[C@H](C(=O)O)C1; NMeCha = CN[C@@H](CC1CCCCC1)C(=O)O; Azetidine(3,3-F2) = FC1(F)CN(*)C1; NMeChg = CN[C@H](C(=O)O)C1CCCCC1; NMeF = CN[C@@H](Cc1ccccc1)C(=O)O; NMeT = CN[C@H](C(=O)O)[C@@H](C)O; NMeD = CN[C@@H](CC(=O)O)C(=O)O; NMeL = CN[C@@H](CC(C)C)C(=O)O; NMeNva = CCC[C@H](NC)C(=O)O; NMeV = CN[C@H](C(=O)O)C(C)C; d(β3hA) = C[C@@H](N)CC(=O)O; Pip = O=C(O)[C@@H]1CCCCN1; NMeA = CN[C@@H](C)C(=O)O; NMeAib = CNC(C)(C)C(=O)O; Piperidide = C1CCN(*)CC1; Pyrrolidide = C1CCN(*)C1; dNMeA = CN[C@H](C)C(=O)O; Ac5c = NC1(C(=O)O)CCCC1; Aze = O=C(O)[C@@H]1CCN1; Ac3c = NC1(C(=O)O)CC1; Isopentyl = CC(C)CC*; βAla = NCCC(=O)O; Sar = CNCC(=O)O
What follows are compounds tested against T1, Kras and SOS1 (biotin-tagged human Kras loaded with GDP, His-tagged human SOS1) (Homo sapiens, UniProt P01116, G12D) (assay: Protein-protein interaction inhibition between Kras and SOS1 (KrasGl2D-SOS PPI) using AlphaScreen). Conditions: AlphaScreen; biotin-tagged human Kras loaded with GDP, His-tagged human SOS1; read-out: KRAS G12D-SOS PPI IC50.
T1 construct: made in house; host or cells: E. coli (stated for Kras only)
T1 sequence (P01116 1-188 isoform P01116-2 G12D): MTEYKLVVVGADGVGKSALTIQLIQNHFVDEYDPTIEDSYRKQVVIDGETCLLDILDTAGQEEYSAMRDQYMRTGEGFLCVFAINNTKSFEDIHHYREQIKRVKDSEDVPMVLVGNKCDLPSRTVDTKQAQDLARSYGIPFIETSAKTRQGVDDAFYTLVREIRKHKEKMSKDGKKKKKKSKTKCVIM
Assay type: binding
How it was run: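 AlphaScreen format: Ni donor beads capture His-SOS1, streptavidin acceptor beads capture biotinylated Kras (E. coli-expressed, GDP-loaded post-purification). Excite 680 nm, read 520-620 nm.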

Row | Structure (SMILES) | pIC50
1 | CC[C@H](C)[C@@H]1NC(=O)[C@H](C)N(C)C(=O)CCNC(=O)[C@H](CC(C)C)N(C)C(=O)[C@H](Cc2ccccc2)N(C)C(=O)[C@@H]2CCCN2C(=O)[C@H](CCc2ccc(C(F)(F)F)cc2)NC(=O)CN(C)C(=O)[C@H](Cc2ccc(Cl)cc2)N(C)C(=O)CN(C)C(=O)CN(C)C1=O [Compound 1086] (cyclo(I[Sar][Sar][NMePhe(4-Cl)][Sar][hPhe(4-CF3)]P[NMeF][NMeL][βAla][NMeA])) | 6.74
2 | CC[C@H](C)[C@@H]1NC(=O)[C@H](C)N(C)C(=O)C[C@@H](C)NC(=O)[C@H](C2CCCC2)N(C)C(=O)C2(CCCC2)NC(=O)[C@@H]2CCCN2C(=O)[C@H](CCc2ccc(C(F)(F)F)c(Cl)c2)NC(=O)[C@@H](C)N(C)C(=O)[C@H](Cc2cccc(C)c2)N(C)C(=O)CN(C)C(=O)CN(C)C1=O [Compound 1088] (cyclo([Ac5c][NMeGly(cPent)][d(β3hA)][NMeA]I[Sar][Sar][NMePhe(3-Me)][dNMeA][hPhe(3-Cl-4-CF3)]P)) | 6.77
3 | CC[C@H](C)[C@@H]1NC(=O)[C@H](CC(C)C)N(C)C(=O)C[C@@H](C(=O)N2CCCCC2)N(C)C(=O)[C@H](C2CCCCC2)N(C)C(=O)C2(CCCC2)NC(=O)[C@@H]2CC(=O)CCN2C(=O)[C@H](CCc2ccc(C(F)(F)F)c(Cl)c2)NC(=O)CN(C)C(=O)[C@H](CC2CCCCC2)N(C)C(=O)CN(C)C(=O)CN(C)C1=O [Compound 1089] ([NMeL]I[Sar][Sar][NMeCha][Sar][hPhe(3-Cl-4-CF3)][Pip(4-oxo)][Ac5c][NMeChg][NMeD]-Piperidide; lactam N-11) | 8.80
4 | CC[C@H](C)[C@@H]1NC(=O)[C@H](C)N(C)C(=O)C[C@@H](C)NC(=O)[C@H](CC(C)C)N(C)C(=O)C2(CCCC2)NC(=O)[C@@H]2CCCN2C(=O)[C@H](CCc2ccc(C(F)(F)F)cc2)NC(=O)CN(C)C(=O)[C@H](CC2CCCCC2)N(C)C(=O)CN(C)C(=O)CN(C)C1=O [Compound 1090] (cyclo([Ac5c][NMeL][d(β3hA)][NMeA]I[Sar][Sar][NMeCha][Sar][hPhe(4-CF3)]P)) | 7.06
5 | CC[C@H](C)[C@@H]1NC(=O)[C@H](C)N(C)C(=O)C[C@@H](C(=O)N2CCCC2)NC(=O)[C@H](CC(C)C)N(C)C(=O)[C@H](Cc2ccccc2)N(C)C(=O)[C@H](CCCCC(F)F)NC(=O)[C@H](CCc2ccc(C(F)(F)F)cc2)NC(=O)CN(C)C(=O)[C@H](Cc2ccc(Cl)cc2)N(C)C(=O)CN(C)C(=O)CN(C)C1=O [Compound 1092] ([NMeA]I[Sar][Sar][NMePhe(4-Cl)][Sar][hPhe(4-CF3)][hNle(7,7-F2)][NMeF][NMeL]D-Pyrrolidide; lactam N-11) | 7.39
6 | CC[C@H](C)[C@@H]1NC(=O)[C@H](CC(C)C)N(C)C(=O)C[C@@H](C(=O)N2CCCCC2)N(C)C(=O)[C@H](C2CCCCC2)N(C)C(=O)C2(CCCC2)NC(=O)[C@@H]2CCCN2C(=O)[C@H](CCc2ccc(C(F)(F)F)c(Cl)c2)NC(=O)CN(C)C(=O)[C@H](CCS(C)(=O)=O)N(C)C(=O)CN(C)C(=O)CN(C)C1=O [Compound 1094] ([NMeL]I[Sar][Sar][NMeMet(O2)][Sar][hPhe(3-Cl-4-CF3)]P[Ac5c][NMeChg][NMeD]-Piperidide; lactam N-11) | 8.66
7 | CC[C@H](C)[C@@H]1NC(=O)[C@H](CC(C)C)N(C)C(=O)C[C@@H](C(=O)N2CCCCC2)N(C)C(=O)[C@H](C2CCCCC2)N(C)C(=O)C2(CCCC2)NC(=O)[C@@H]2C[C@H](c3ccccc3)CN2C(=O)[C@H](CCc2ccc(C(F)(F)F)c(Cl)c2)NC(=O)CN(C)C(=O)[C@H](CC2CCCCC2)N(C)C(=O)[C@@H]2CCCN2C(=O)CN(C)C1=O [Compound 1096] ([NMeL]I[Sar]P[NMeCha][Sar][hPhe(3-Cl-4-CF3)][Pro(cis-4-Ph)][Ac5c][NMeChg][NMeD]-Piperidide; lactam N-11) | 8.59
8 | CC[C@H](C)[C@@H]1NC(=O)[C@@H]2CCCCN2C(=O)C[C@@H](C)NC(=O)[C@H](CC(C)C)N(C)C(=O)C2(CCCC2)NC(=O)[C@@H]2CCCN2C(=O)[C@H](CCc2ccc(C(F)(F)F)cc2)NC(=O)CN(C)C(=O)[C@H](CC2CCCCC2)N(C)C(=O)CN(C)C(=O)CN(C)C1=O [Compound 1097] (cyclo([Ac5c][NMeL][d(β3hA)][Pip]I[Sar][Sar][NMeCha][Sar][hPhe(4-CF3)]P)) | 6.64
9 | CC[C@H](C)[C@@H]1NC(=O)[C@H](CC(C)C)N(C)C(=O)C[C@@H](C(=O)N2CCCCC2)N(C)C(=O)[C@H](CC(C)C)NC(=O)C(C)(C)N(C)C(=O)[C@H](Cc2ccccc2OC)NC(=O)[C@H](Cc2cccc(I)c2)NC(=O)CN(C)C(=O)[C@H](Cc2ccc(C)cc2)N(C)C(=O)CN(C)C(=O)CN(C)C1=O [Compound 1100] ([NMeL]I[Sar][Sar][NMePhe(4-Me)][Sar][Phe(3-I)][Phe(2-OMe)][NMeAib]L[NMeD]-Piperidide; lactam N-11) | 8.20
10 | CC[C@H](C)[C@@H]1NC(=O)[C@H](CC(C)C)N(C)C(=O)C[C@@H](C(=O)N2CCCCC2)N(C)C(=O)[C@H]([C@@H](C)OC)N(C)C(=O)C2(CCCC2)NC(=O)[C@@H]2CCCN2C(=O)[C@H](CCc2ccc(C(F)(F)F)c(Cl)c2)NC(=O)CN(C)C(=O)[C@H](CC2CCCCC2)N(C)C(=O)CN(C)C(=O)CN(C)C1=O [Compound 1101] ([NMeL]I[Sar][Sar][NMeCha][Sar][hPhe(3-Cl-4-CF3)]P[Ac5c][NMeT](Me)[NMeD]-Piperidide; lactam N-11) | 8.05
11 | CC[C@H](C)[C@@H]1NC(=O)[C@H](C)N(C)C(=O)C[C@@H](C(=O)N2CCCCC2)N(C)C(=O)[C@H](C(C)C)N(C)C(=O)C2(CCCC2)NC(=O)[C@@H]2CCCN2C(=O)[C@H](CCc2ccc(C(F)(F)F)c(Cl)c2)NC(=O)[C@@H](C)N(C)C(=O)[C@H](CC2CCCCC2)N(C)C(=O)[C@@H]2CCN2C(=O)[C@H](C)N(C)C1=O [Compound 1103] ([NMeA]I[NMeA][Aze][NMeCha][dNMeA][hPhe(3-Cl-4-CF3)]P[Ac5c][NMeV][NMeD]-Piperidide; lactam N-11) | 7.80
12 | CC[C@H](C)[C@@H]1NC(=O)[C@H](C)N(C)C(=O)C[C@@H](C(=O)N2CCCCC2)N(C)C(=O)[C@H](C(C)C)N(C)C(=O)[C@H](CC(F)(F)F)NC(=O)[C@H](CCN2CC(F)(F)C2)N(C)C(=O)[C@H](CCc2ccc(C(F)(F)F)c(Cl)c2)NC(=O)CN(C)C(=O)[C@H](CC2CCCCC2)N(C)C(=O)CN(C)C(=O)CN(C)C1=O [Compound 1104] ([NMeA]I[Sar][Sar][NMeCha][Sar][hPhe(3-Cl-4-CF3)][NMeDab(N,N-(CH2CF2CH2))][Abu(4,4,4-F3)][NMeV][NMeD]-Piperidide; lactam N-11) | 7.96
13 | CC[C@H](C)[C@@H]1NC(=O)[C@H](CC(C)C)N(C)C(=O)C[C@@H](C(=O)N2CCCCC2)N(C)C(=O)[C@H](C(C)C)NC(=O)C2(CCCC2)NC(=O)[C@@H]2CCCN2C(=O)[C@H](CCc2ccc(C(F)(F)F)c(Cl)c2)NC(=O)CN(C)C(=O)[C@H](CC2CCCCC2)N(C)C(=O)[C@@H]2CCN2C(=O)[C@H](C)N(C)C1=O [Compound 1106] ([NMeL]I[NMeA][Aze][NMeCha][Sar][hPhe(3-Cl-4-CF3)]P[Ac5c]V[NMeD]-Piperidide; lactam N-11) | 7.46
14 | CC[C@H](C)[C@@H]1NC(=O)[C@H](CC(C)C)N(C)C(=O)C[C@@H](C(=O)N(C)C)N(C)C(=O)[C@H](C2CCCC2)N(C)C(=O)[C@H](COC)NC(=O)[C@H](CC(=O)N2CC(F)(F)C2)N(C)C(=O)[C@H](CCc2ccc(C(F)(F)F)c(Cl)c2)NC(=O)CN(C)C(=O)[C@H](CC2CCCCC2)N(C)C(=O)[C@@H]2CCN2C(=O)[C@H](C)N(C)C1=O [Compound 1108] ([NMeL]I[NMeA][Aze][NMeCha][Sar][hPhe(3-Cl-4-CF3)][NMeD](Azetidine(3,3-F2))S(Me)[NMeGly(cPent)][NMeD]-NMe2; lactam N-11) | 7.96
15 | CC[C@H](C)[C@@H]1NC(=O)[C@@H]2CCCCN2C(=O)C[C@@H](C)NC(=O)[C@H](C(C)C)N(C)C(=O)[C@H](Cc2ccccc2)N(C)C(=O)[C@H](CC(C)C)N(C)C(=O)[C@H](CCc2ccc(C(F)(F)F)cc2)NC(=O)CN(C)C(=O)[C@H](Cc2ccc(Cl)cc2)N(C)C(=O)CN(C)C(=O)CN(C)C1=O [Compound 1110] (cyclo(I[Sar][Sar][NMePhe(4-Cl)][Sar][hPhe(4-CF3)][NMeL][NMeF][NMeV][d(β3hA)][Pip])) | 6.89
16 | CC[C@H](C)[C@@H]1NC(=O)[C@H](CC(C)C)N(C)C(=O)C[C@@H](C)NC(=O)[C@H](C(C)C)N(C)C(=O)C2(CC2)NC(=O)[C@@H]2CCCN2C(=O)[C@H](CCc2ccc(C(F)(F)F)c(Cl)c2)NC(=O)CN(C)C(=O)[C@H](CC2CCCCC2)N(C)C(=O)CN(C)C(=O)CN(C)C1=O [Compound 1111] (cyclo([Ac3c][NMeV][d(β3hA)][NMeL]I[Sar][Sar][NMeCha][Sar][hPhe(3-Cl-4-CF3)]P)) | 7.39
17 | CCC[C@H]1C(=O)NC2(CCCC2)C(=O)N(C)[C@@H](C2CCCCC2)C(=O)N(C)[C@H](C(=O)N2CCCCC2)CC(=O)N(C)[C@@H](CC(C)C)C(=O)N[C@@H]([C@@H](C)CC)C(=O)N(C)[C@@H](C)C(=O)N2CC[C@H]2C(=O)N(C)[C@@H](CC2CCCCC2)C(=O)N(C)CC(=O)N[C@@H](CCc2ccc(C(F)(F)F)c(Cl)c2)C(=O)N1C [Compound 1113] ([NMeL]I[NMeA][Aze][NMeCha][Sar][hPhe(3-Cl-4-CF3)][NMeNva][Ac5c][NMeChg][NMeD]-Piperidide; lactam N-11) | 6.39
18 | CC[C@H](C)[C@@H]1NC(=O)[C@H](C)N(C)C(=O)C[C@@H](C(=O)N2CCCC2)NC(=O)[C@H](CC(C)C)N(C)C(=O)[C@H](Cc2ccccc2)N(C)C(=O)[C@H](COCCC(C)C)NC(=O)[C@H](CCc2ccc(C(F)(F)F)cc2)NC(=O)CN(C)C(=O)[C@H](Cc2ccc(Cl)cc2)N(C)C(=O)CN(C)C(=O)CN(C)C1=O [Compound 1119] ([NMeA]I[Sar][Sar][NMePhe(4-Cl)][Sar][hPhe(4-CF3)]S(Isopentyl)[NMeF][NMeL]D-Pyrrolidide; lactam N-11) | 6.74

— patent US12371454B2, “Cyclic peptide compound having Kras inhibitory action” (priority 2019, dated 2025)
